Assay results published in patent publication US9566263B2, “Methods and formulations for treating scars and β-catenin-mediated disorders” (Hospital for Sick Children, priority 2009, dated 2017).
Entries after “also recorded” stand apart in the source; their conditions may differ.

Columns and labels:
[1] = tested on: cultured cells derived from hyperplastic wounds; assay: SRB cell viability, hyperplastic wound cells; assay type: cell-based, human; conditions: hyperplastic wound cell cultures, vs DMSO control, SRB assay
Protocol: (§1) The biological relevance of the screen was considerable since cells used for the screen were obtained from patients with hyperplastic wounds as well as healthy tissue. The experiments were repeated in triplicate within 96 well plates, with each well containing 4000 cells treated with between 0.1 1.0, or 10 μM of compound or DMSO as a control. The Sulforhodamine B assay (SRB) was used to measure cell viability.

[2] = tested on: normal dermal fibroblast cultures; assay: SRB cell viability, normal fibroblasts; assay type: cell-based, human; conditions: SRB assay
Protocol: as §1

β-catenin [3] = assay: Western blot of β-catenin in hyperplastic wound cell cultures; assay type: cell-based, human; conditions: vs DMSO control
Protocol: Tissue samples were washed twice with PBS and lysed with Reporter Gene Assay Lysis Buffer (Roche). Lysates were centrifuged at 16,000×g for 5 minutes to remove cell debris and quantified using the Bicinchoninic Acid (BCA) Protein Assay (Pierce). Equal amounts of total protein were separated by electrophoresis through an SDS-polyacrylamide gel, transferred to a nitrocellulose membrane (Amersham), and immunoblotted overnight at 4° C. with primary antibodies against phosphoGSK3β ([…], rabbit polyclonal, New England Biolabs), β-catenin (mouse monoclonal, Upstate Biotechnology), total GSK3β (mouse monoclonal, Transduction Laboratories), and GAPDH (mouse monoclonal, Upstate Biotechnology). Horseradish Peroxidase (HRP)-tagged secondary antibodies and Enhanced ChemiLuminescence (Amersham) were used to detect hybridization. Densitometery was performed using the AlphaEaseFC software (Alpha Innotech). Western blotting was performed in triplicates to ensure reproducibility. β-catenin levels in cell cultures from hyperplastic scars treated with Nefopam or control were analyzed using Western blot analysis. […] GAPDH expression was included as a loading control.

[4] = tested on: aggressive fibromatosis (AF) tumours; assay: Apc+/Apc1638N AF mouse model; assay type: in vivo; conditions: male Apc/Apc1638N mice
Excerpt: The generation and phenotype of Apc/Apc1638N mice have been well characterized. These mice harbour a targeted mutation at codon 1638 in the Apc gene as a result of a neomycin insert in antisense orientation at exon 15. […] Treatment by daily oral gavaging began 2 months after Apc/Apc1638N mice were weaned and continued for 3 months. At autopsy, AF tumours and intestinal polyps were scored macroscopically. AF tumours and normal tissue were collected for protein extraction and fixed for histological examination.

β-catenin [5] = assay: Western blot/densitometry of β-catenin in human AF tumour primary cell cultures; assay type: cell-based
Protocol: Primary cell cultures from the human AF tumour and normal fascial tissue samples were established. Monolayer cultures were cultured in DMEM supplemented with 10% fetal bovine serum and maintained at 37° C. in 5% CO2. Cells were divided when confluent and experiments were performed between the first and fifth passages. […] Tissue samples were washed twice with PBS and lysed with Reporter Gene Assay Lysis Buffer (Roche). Lysates were centrifuged at 16,000×g for 5 minutes to remove cell debris and quantified using the Bicinchoninic Acid (BCA) Protein Assay (Pierce). Equal amounts of total protein were separated by electrophoresis through an SDS-polyacrylamide gel, transferred to a nitrocellulose membrane (Amersham), and immunoblotted overnight at 4° C. with primary antibodies against phosphoGSK3β ([…], rabbit polyclonal, New England Biolabs), β-catenin (mouse monoclonal, Upstate Biotechnology), total GSK3β (mouse monoclonal, Transduction Laboratories), and GAPDH (mouse monoclonal, Upstate Biotechnology). Horseradish Peroxidase (HRP)-tagged secondary antibodies and Enhanced ChemiLuminescence (Amersham) were used to detect hybridization. Densitometery was performed using the AlphaEaseFC software (Alpha Innotech). Western blotting was performed in triplicates to ensure reproducibility.

[6] = tested on: primary cells derived from human AF tumours; assay: Trypan Blue cell viability, human AF tumour cells; assay type: cell-based; conditions: 5 days, vs 0.1% DMSO
Protocol: (§2) Primary cell cultures from the human AF tumour and normal fascial tissue samples were established. Monolayer cultures were cultured in DMEM supplemented with 10% fetal bovine serum and maintained at 37° C. in 5% CO2. Cells were divided when confluent and experiments were performed between the first and fifth passages.
(§3) Cell viability was measured using the Trypan Blue Dye Exclusion method. Cells were stained with Trypan Blue Dye at a 1:1 ratio, and both live (clear) and dead (blue) cells were accounted for. Proliferation was measured using 5-bromo-2-deoxy-uridine (BrdU) Incorporation assay. After BrdU incubation for 12 hours, cells with incorporated BrdU were identified using […] anti-BrdU antibody and horse anti-mouse antibody conjugated to Alkaline Phosphatase. Presence of BrdU was detected using Alkaline Phosphatase substrate. Percentage of positively stained nuclei out of total nuclei was analyzed over 10 high-powered fields.

[7] = tested on: primary cells derived from human aggressive fibromatosis tumours; assay: BrdU incorporation proliferation assay, human AF tumour cells; assay type: cell-based; conditions: 5 days, vs DMSO
Protocol: as §2, §3

β-catenin [8] = assay: Western blot/densitometry of β-catenin in human fibroblast cells; assay type: cell-based
Protocol: Tissue samples were washed twice with PBS and lysed with Reporter Gene Assay Lysis Buffer (Roche). Lysates were centrifuged at 16,000×g for 5 minutes to remove cell debris and quantified using the Bicinchoninic Acid (BCA) Protein Assay (Pierce). Equal amounts of total protein were separated by electrophoresis through an SDS-polyacrylamide gel, transferred to a nitrocellulose membrane (Amersham), and immunoblotted overnight at 4° C. with primary antibodies against phosphoGSK3β ([…], rabbit polyclonal, New England Biolabs), β-catenin (mouse monoclonal, Upstate Biotechnology), total GSK3β (mouse monoclonal, Transduction Laboratories), and GAPDH (mouse monoclonal, Upstate Biotechnology). Horseradish Peroxidase (HRP)-tagged secondary antibodies and Enhanced ChemiLuminescence (Amersham) were used to detect hybridization. Densitometery was performed using the AlphaEaseFC software (Alpha Innotech). Western blotting was performed in triplicates to ensure reproducibility. Hyperplastic wounds are characterized by elevated β-catenin levels during the proliferative phase.

β-catenin [9] = assay: Western blot of β-catenin in wounds of Tcf mice; assay type: in vivo, mouse; conditions: 40 mg/kg daily intraperitoneal, 14 days post-wounding, vs control
Excerpt: A Tcf-reporter construct containing the lacZ gene downstream of a c-Fos minimal promoter and three consensus Tcf-binding motifs was constructed. Upon binding of β-catenin/Tcf complex to Tcf motifs, the expression of lacZ is activated. Tcf mice were wounded as described previously: two 4 mm diameter full-thickness skin wounds were generated using a dermal biopsy punch (Miltex Instrument Company, York, Pa., USA). […] At 14 days post-wounding, wound sizes were examined, and wound tissues were collected for RNA and protein extraction and fixed for histological examination. Tissue samples were washed twice with PBS and lysed with Reporter Gene Assay Lysis Buffer (Roche). Lysates were centrifuged at 16,000×g for 5 minutes to remove cell debris and quantified using the Bicinchoninic Acid (BCA) Protein Assay (Pierce). Equal amounts of total protein were separated by electrophoresis through an SDS-polyacrylamide gel, transferred to a nitrocellulose membrane (Amersham), and immunoblotted overnight at 4° C. with primary antibodies against phosphoGSK3β ([…], rabbit polyclonal, New England Biolabs), β-catenin (mouse monoclonal, Upstate Biotechnology), total GSK3β (mouse monoclonal, Transduction Laboratories), and GAPDH (mouse monoclonal, Upstate Biotechnology). Horseradish Peroxidase (HRP)-tagged secondary antibodies and Enhanced ChemiLuminescence (Amersham) were used to detect hybridization. […]

[10] = tested on: 4 mm full thickness cutaneous wounds; assay: Wound/scar size in Tcf mice, systemic Nefopam; assay type: in vivo, mouse; conditions: 4 mm punch wound, 40 mg/kg daily systemic, day 14 post-wounding, vs saline carrier
Excerpt: A Tcf-reporter construct containing the lacZ gene downstream of a c-Fos minimal promoter and three consensus Tcf-binding motifs was constructed. Upon binding of β-catenin/Tcf complex to Tcf motifs, the expression of lacZ is activated. Tcf mice were wounded as described previously: two 4 mm diameter full-thickness skin wounds were generated using a dermal biopsy punch (Miltex Instrument Company, York, Pa., USA). […] At 14 days post-wounding, wound sizes were examined, and wound tissues were collected for RNA and protein extraction and fixed for histological examination. […] Cutaneous wounds were generated using a biopsy punch procedure resulting in a 4 mm diameter full thickness circular wound. Scale is in mm units.

hyperplastic scars = assay: TGF-β induced hyperplastic scar model; assay type: in vivo, mouse; conditions: mice, TGF-β injected prior to wounding, 4 mm punch wounds, 40 mg/kg daily
Protocol: Both oral and intraperitoneal administration routes were evaluated (40 mg/kg body weight, daily; 0.1% DMSO as control).

CN1CCOC(c2ccccc2)c2ccccc2C1 (stereo not drawn) [Nefopam, 5-methyl-1-phenyl-1,3,4,6-tetrahydro-2,5-benzoxazocine]
percent cell survival [1]: significant decline in the percent of cells surviving | percent cell survival [2]: remained relatively unchanged | β-catenin protein levels (β-catenin [3]): substantially reduce β-catenin protein levels; also recorded: substantially reduced the protein level of β-catenin | number of epithelial-derived polyps in the upper gastrointestinal tract ([4]; 40 mg/kg daily oral gavage): no significant differences | number of AF tumours formed ([4]; 40 mg/kg daily oral gavage for 3 months, at 6 months of age, mean ± 95% CI): 8.18±1.77 | decrease in total β-catenin levels (densitometry) (β-catenin [5]; 250 μm Nefopam for 5 days vs 0.1% DMSO): ~5 fold | total β-catenin protein (92 kDa), Western blot (β-catenin [5]; treatment for 5 days): marked decrease in the amount of protein | number of dead cells [6]: the number of dead cells did not change; also recorded: no significant differences in the number of dead cells | number of live cells [6]: significantly decreased the number of live cells; also recorded: significantly smaller number of live cells | percent BrdU+/DAPI+ cells (proliferation) [7]: significantly reduces the incorporation of BrdU; also recorded: significantly fewer proliferating cells | decrease in total β-catenin levels (densitometry) (β-catenin [8]; human fibroblast cell cultures vs 0.1% DMSO): approximately 4 fold | total β-catenin protein levels, Western blot (β-catenin [8]; immortalized human fibroblast cells vs DMSO): significant decrease in total β-catenin protein levels | β-catenin levels in wounds (β-catenin [9]): decrease in β-catenin levels | scar diameter [10]: significantly smaller in diameter | hyperplastic scar size (hyperplastic scars): smaller scars
